The values that follow come from US20240182466A1, “A Crystal Form of a Fluorine-substituted Pyridopyrazole Compound and a Preparation Method Thereof” (JUMBO DRUG BANK CO., LTD, priority 2021, published 2024).

A word on the pIC50: it is the IC50 on a negative log10 scale, so that one unit is a factor of ten.

pIC50: −log10 of the molar value.

The nature of series [1]: Solid stability test of crystal form (XRPD). Particulars: influencing factors and accelerated conditions. The series is classed as physicochemical. As for the experimental part: According to the “Guiding Principles for Stability Test of Raw Materials and Preparations” (General Rule 9001 of Part Four of the Chinese Pharmacopoeia 2015 Edition), the stability of the crystal form A of the compound in Formula (I) was investigated under influencing factors ((high temperature (60° C., open), high humidity (room temperature/relative humidity 92.5%, open), strong light (visible light intensity of 5000 lux and ultraviolet intensity of […], open), and accelerated conditions (40° C./75% RH, open) and (60° C./75% RH, open)).
About 20 mg of the crystal form A of the compound in Formula (I) was weighed respectively, and it was placed at the bottom of a glass sample bottle, and spread into a thin layer. Its sample was completely exposed for sampling. The samples placed under different conditions were sampled for testing (XRPD) on day 5, day 10, 1 month, 2 months, and 3 months.

Series [2] in a line: Hygroscopicity by dynamic vapor sorption (DVS). Format: physicochemical. The note with it: 80% RH/25° C. Here is the method:
Instrument model: SMS DVS Intrinsic Plus dynamic steam adsorption instrument.
Test condition: a sample (10-20 mg) is taken and placed in a DVS sample tray for testing.
Detailed DVS parameters are as follows:
Balance: dm/dt=0.002%/min (minimum: 10 min, and maximum: 180 min).
Drying: it is dried at 0% relative humidity (RH) until dm/dt≤0.002%/min or maximum 180 min.
RH (%) test step range: 0%-95%-0%.
SMS DVS Intrinsic Plus dynamic steam adsorption instrument.
A sample (10-20 mg) was taken and placed in a DVS sample tray for testing.

Series [3] deals with TEC (Homo sapiens (Human), UniProt P42680). As to the kind of experiment: TEC kinase test (33P-ATP filter binding). Format: biochemical. Here is the method:
(§1) Experimental example 1: EGFR, ITK, TEC, and BTK kinase'test.
(§2) Buffer condition: 20 mM HEPES(pH 7.5), 10 mM MgCl2, 1 mM EGTA, 0.02% Brij35, 0.02 mg/mL BSA, 0.1 mm Na3VO4, 2 mm; DTT, 1% DMSO.
(§3) 2.1. An indicator substrate was prepared in a reaction buffer prepared newly.
(§4) 2.2. A cofactor required was transferred to the substrate solution above.
(§5) 2.3. A kinase indicated was injected into the substrate solution and mixed gently.
(§6) 2.4. An acoustic technology was used to convey a compound in DMSO to a kinase reaction mixture (Echo550).
(§7) 2.5. ^33P-ATP (specific activity 0.01 μci/μL, finally) was fed into the reaction mixture to initiate a reaction. (ATP final concentrations were 2 μM, 5 μM, and 5 μM respectively).
(§8) 2.6. The kinase reaction was incubated at room temperature for 120 min.
(§9) 2.7. The reaction was recorded on P81 ion exchange paper (Whatman #3698-915).
(§10) 2.8. 0.75% phosphoric acid was widely used to clean a filter.
(§11) 2.9. The remaining radioactive phosphorylation substrate on filter paper was measured.
(§12) 3. Data analysis: the kinase activity data was expressed as a percentage of the remaining kinase activity in the test sample compared to the carrier (dimethyl sulfoxide) reaction. The IC50 value and curve fitting were obtained by using Prism4 software (GraphPad).

Series [4] concerns the target BTK (Homo sapiens (Human), UniProt Q06187). As to the kind of experiment: BTK kinase test (33P-ATP filter binding). The series is classed as biochemical. The note with it: 120 min at room temperature. Here is the method:
as §1, §2, §3, §4, §5, §6, §7, §8, §9, §10, §11, §12

Series [5] has as its target EGFR (Homo sapiens (Human), UniProt P00533). As to the kind of experiment: EGFR kinase test (33P-ATP filter binding). The series is classed as biochemical. Here is the method:
as §1, §2, §3, §4, §5, §6, §7, §8, §9, §10, §11, §12

Series [6] concerns the target ITK (Homo sapiens (Human), UniProt Q08881). Description: ITK kinase test (33P-ATP filter binding). The series is classed as biochemical. Here is the method: as §1, §2, §3, §4, §5, §6, §7, §8, §9, §10, §11, §12
The mark [7] stands for this setting: 33P-ATP, 120 min at room temperature.

Chain of TEC (P42680 whole entry): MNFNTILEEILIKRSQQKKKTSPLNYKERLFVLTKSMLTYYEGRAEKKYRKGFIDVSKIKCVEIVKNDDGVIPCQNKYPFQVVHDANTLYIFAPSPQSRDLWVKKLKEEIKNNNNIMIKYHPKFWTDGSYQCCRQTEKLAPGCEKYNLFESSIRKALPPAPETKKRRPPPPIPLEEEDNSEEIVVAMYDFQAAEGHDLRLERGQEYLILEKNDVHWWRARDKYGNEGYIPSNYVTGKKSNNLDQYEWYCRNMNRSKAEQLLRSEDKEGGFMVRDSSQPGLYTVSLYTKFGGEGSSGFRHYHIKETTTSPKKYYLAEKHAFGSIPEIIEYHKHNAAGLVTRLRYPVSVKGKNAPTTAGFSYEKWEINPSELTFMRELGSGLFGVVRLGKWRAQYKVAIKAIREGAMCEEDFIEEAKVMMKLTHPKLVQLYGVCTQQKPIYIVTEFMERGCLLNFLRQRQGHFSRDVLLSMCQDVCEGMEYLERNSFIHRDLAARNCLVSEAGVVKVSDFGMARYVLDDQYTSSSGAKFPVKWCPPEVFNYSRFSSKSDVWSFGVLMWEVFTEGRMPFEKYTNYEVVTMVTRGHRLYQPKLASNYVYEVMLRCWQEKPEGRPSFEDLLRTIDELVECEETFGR
Chain of EGFR (P00533 25-1210): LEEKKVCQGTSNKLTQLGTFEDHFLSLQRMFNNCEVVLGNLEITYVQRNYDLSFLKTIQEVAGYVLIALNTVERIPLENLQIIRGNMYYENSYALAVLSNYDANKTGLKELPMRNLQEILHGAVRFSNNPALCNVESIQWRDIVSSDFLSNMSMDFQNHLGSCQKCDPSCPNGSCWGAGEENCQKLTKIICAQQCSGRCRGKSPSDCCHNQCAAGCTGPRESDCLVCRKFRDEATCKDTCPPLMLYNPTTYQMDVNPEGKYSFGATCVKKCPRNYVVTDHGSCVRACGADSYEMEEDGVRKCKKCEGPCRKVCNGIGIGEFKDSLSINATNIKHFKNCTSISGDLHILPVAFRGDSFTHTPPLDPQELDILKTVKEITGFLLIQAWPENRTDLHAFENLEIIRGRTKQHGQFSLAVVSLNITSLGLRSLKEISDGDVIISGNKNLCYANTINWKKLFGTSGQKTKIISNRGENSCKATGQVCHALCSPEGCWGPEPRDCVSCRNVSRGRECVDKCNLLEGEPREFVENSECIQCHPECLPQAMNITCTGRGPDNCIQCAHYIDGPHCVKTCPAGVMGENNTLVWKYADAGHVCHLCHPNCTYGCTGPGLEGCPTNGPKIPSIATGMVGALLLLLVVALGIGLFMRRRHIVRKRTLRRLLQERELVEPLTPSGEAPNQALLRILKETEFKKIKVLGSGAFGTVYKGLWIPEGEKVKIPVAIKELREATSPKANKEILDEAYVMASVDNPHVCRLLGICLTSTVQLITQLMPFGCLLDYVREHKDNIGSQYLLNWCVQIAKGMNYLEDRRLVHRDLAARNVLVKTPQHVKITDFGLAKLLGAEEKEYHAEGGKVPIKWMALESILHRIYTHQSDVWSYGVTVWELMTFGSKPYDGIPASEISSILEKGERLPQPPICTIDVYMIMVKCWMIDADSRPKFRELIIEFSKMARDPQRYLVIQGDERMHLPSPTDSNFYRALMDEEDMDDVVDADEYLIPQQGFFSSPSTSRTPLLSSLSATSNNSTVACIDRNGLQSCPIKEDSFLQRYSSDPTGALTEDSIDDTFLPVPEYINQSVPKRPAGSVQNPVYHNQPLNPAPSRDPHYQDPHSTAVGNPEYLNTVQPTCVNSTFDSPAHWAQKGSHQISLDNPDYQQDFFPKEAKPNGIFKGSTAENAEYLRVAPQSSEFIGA
Chain of ITK (Q08881 whole entry): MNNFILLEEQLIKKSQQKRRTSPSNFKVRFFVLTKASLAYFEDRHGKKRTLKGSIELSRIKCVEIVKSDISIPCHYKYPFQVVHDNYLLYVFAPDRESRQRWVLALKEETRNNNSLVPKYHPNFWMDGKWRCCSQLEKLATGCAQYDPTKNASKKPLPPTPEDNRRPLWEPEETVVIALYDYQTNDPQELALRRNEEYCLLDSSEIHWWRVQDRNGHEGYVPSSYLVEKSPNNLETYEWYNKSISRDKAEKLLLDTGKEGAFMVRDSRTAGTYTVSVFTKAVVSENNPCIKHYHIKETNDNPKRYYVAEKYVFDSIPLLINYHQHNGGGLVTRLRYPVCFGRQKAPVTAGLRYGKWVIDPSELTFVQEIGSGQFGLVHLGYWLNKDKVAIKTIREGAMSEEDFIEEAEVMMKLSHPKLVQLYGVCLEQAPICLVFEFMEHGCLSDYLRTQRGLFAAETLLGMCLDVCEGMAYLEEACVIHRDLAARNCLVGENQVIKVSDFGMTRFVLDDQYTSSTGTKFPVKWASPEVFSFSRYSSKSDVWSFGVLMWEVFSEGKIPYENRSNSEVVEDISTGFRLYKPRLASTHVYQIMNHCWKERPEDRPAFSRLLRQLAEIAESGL
Chain of BTK (Q06187 whole entry): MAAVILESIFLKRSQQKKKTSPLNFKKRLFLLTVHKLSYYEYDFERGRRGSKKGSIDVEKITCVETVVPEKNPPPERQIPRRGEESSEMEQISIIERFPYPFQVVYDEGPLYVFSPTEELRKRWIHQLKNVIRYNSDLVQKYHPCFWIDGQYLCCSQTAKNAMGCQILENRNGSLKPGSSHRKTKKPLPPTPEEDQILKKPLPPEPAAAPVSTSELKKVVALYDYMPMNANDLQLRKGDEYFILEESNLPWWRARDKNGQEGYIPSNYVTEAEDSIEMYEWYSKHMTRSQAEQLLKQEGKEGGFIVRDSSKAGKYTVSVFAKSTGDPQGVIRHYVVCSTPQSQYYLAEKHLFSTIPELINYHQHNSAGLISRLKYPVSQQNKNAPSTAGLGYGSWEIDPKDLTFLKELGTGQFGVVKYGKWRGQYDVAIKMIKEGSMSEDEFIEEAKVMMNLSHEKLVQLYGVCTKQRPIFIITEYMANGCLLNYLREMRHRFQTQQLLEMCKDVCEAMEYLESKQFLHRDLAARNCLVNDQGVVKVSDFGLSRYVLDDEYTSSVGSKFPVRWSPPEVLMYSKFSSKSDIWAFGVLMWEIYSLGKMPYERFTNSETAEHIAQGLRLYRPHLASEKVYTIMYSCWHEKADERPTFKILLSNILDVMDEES

Consider `C=CC(=O)N1CCC[C@@H](c2nn(-c3ccc(Oc4cccc(F)c4F)cc3)c3cncc(F)c23)C1`, for which the “Solid stability, conclusion in words” value in series [1] is on record as “good stability”. Besides, in series [2], the Hygroscopic classification entry is listed as “slight hygroscopicity” and the “ΔW, hygroscopic weight increase” value was determined as 0.23%.

For the compound `C=CC(=O)N1CCC[C@H](c2nn(-c3ccc(Oc4cccc(F)c4F)cc3)c3cncc(F)c23)C1` (single isomer, unassigned) [Compound 1B], the pIC50 in series [3] (setting [7]) was 7.13; in series [4] it was 8.67; in series [5] (setting [7]), 6.08; in series [6] (setting [7]), 5.27. In addition, in series [3] (IC50 TEC / IC50 BTK), the “EGFR, ITK, TEC, and BTK activity ratio: TEC to BTK” value amounted to 34 times. Moreover, the “EGFR, ITK, TEC, and BTK activity ratio: EGFR to BTK” value in series [5] (IC50 EGFR / IC50 BTK) is 383 times,. Further, the “EGFR, ITK, TEC, and BTK activity ratio: ITK to BTK” value in series [6] (IC50 ITK / IC50 BTK) is listed as 2513 times,.
